The source made the active and inactive calls. The calls are words filed in the database; no cut-off is given here.
Legend:
[1] = molecular target: Sphingosine 1-phosphate receptor 1 (Homo sapiens) (UniProt P21453); experiment: Agonist activity at sphingosine-1-phosphate receptor human SK-N-SH cells assessed as increase in cAMP level at EC10 by direct immunoassay; assay type: functional, cell-based
SH-SY5Y [2] = experiment: Effect on S1PR1 mRNA expression in human SH-SY5Y cells at EC10 by qPCR method relative to beta-actin; assay type: functional
SH-SY5Y [3] = experiment: Effect on CCL2 mRNA expression in human SH-SY5Y cells at EC10 by qPCR method relative to beta-actin; assay type: functional
SH-SY5Y [4] = experiment: Effect on DRD2 mRNA expression in human SH-SY5Y cells at EC10 by qPCR method relative to beta-actin; assay type: functional
SH-SY5Y [5] = experiment: Effect on MMP9 mRNA expression in human SH-SY5Y cells at EC10 by qPCR method relative to beta-actin; assay type: functional
SH-SY5Y [6] = experiment: Effect on IL10 mRNA expression in human SH-SY5Y cells at EC10 by qPCR method relative to beta-actin; assay type: functional
SK-N-SH [7] = experiment: Effect on IL6 mRNA expression in human SK-N-SH cells at EC10 by qPCR method relative to beta-actin; assay type: functional
SH-SY5Y [8] = experiment: Effect on ADORA2A mRNA expression in human SH-SY5Y cells at EC10 by qPCR method relative to beta-actin; assay type: functional
SH-SY5Y [9] = experiment: Effect on IL6 mRNA expression in human SH-SY5Y cells at EC10 by qPCR method relative to beta-actin; assay type: functional
U-118-MG [10] = experiment: Effect on ADORA2A mRNA expression in human U118MG cells at EC10 by qPCR method relative to beta-actin; assay type: functional
SK-N-SH [11] = experiment: Effect on ADORA2A mRNA expression in human SK-N-SH cells at EC10 by qPCR method relative to beta-actin; assay type: functional
[12] = molecular target: Sphingosine 1-phosphate receptor 1 (Homo sapiens) (UniProt P21453); experiment: Agonist activity at sphingosine-1-phosphate receptor in human U118MG cells assessed as increase in cAMP level at EC10 by direct immunoassay; assay type: functional, cell-based; conditions: U-118-MG
SH-SY5Y [13] = experiment: Effect on ICAM1 mRNA expression in human SH-SY5Y cells at EC10 by qPCR method relative to beta-actin; assay type: functional
SH-SY5Y [14] = experiment: Effect on TNF mRNA expression in human SH-SY5Y cells at EC10 by qPCR method relative to beta-actin; assay type: functional
U-118-MG [15] = experiment: Effect on IL10 mRNA expression in human U118MG cells at EC10 by qPCR method relative to beta-actin; assay type: functional
SH-SY5Y [16] = experiment: Effect on ADCY5 mRNA expression in human SH-SY5Y cells at EC10 by qPCR method relative to beta-actin; assay type: functional
SH-SY5Y [17] = experiment: Effect on VCAM1 mRNA expression in human SH-SY5Y cells at EC10 by qPCR method relative to beta-actin; assay type: functional
U-118-MG [18] = experiment: Effect on IL6 mRNA expression in human U118MG cells at EC10 by qPCR method relative to beta-actin; assay type: functional
SH-SY5Y [19] = experiment: Effect on CXCL10 mRNA expression in human SH-SY5Y cells at EC10 by qPCR method relative to beta-actin; assay type: functional
U-118-MG [20] = experiment: Effect on VCAM1 mRNA expression in human U118MG cells at EC10 by qPCR method relative to beta-actin; assay type: functional
SH-SY5Y [21] = experiment: Effect on PMP22 mRNA expression in human SH-SY5Y cells at EC10 by qPCR method relative to beta-actin; assay type: functional
[22] = Cytotoxicity against human SH-SY5Y cells measured after 24 hrs by crystal-violet staining based assay; assay type: toxicity, cell-based
SH-SY5Y [23] = experiment: Effect on GNAS mRNA expression in human SH-SY5Y cells at EC10 by qPCR method relative to beta-actin; assay type: functional
U-118-MG [24] = experiment: Effect on NFKB1 mRNA expression in human U118MG cells at EC10 by qPCR method relative to beta-actin; assay type: functional
[25] = Cytotoxicity against human SK-N-SH cells measured after 24 hrs by crystal-violet staining based assay; assay type: toxicity, cell-based
SH-SY5Y [26] = experiment: Effect on TNFRSF1A mRNA expression in human SH-SY5Y cells at EC10 by qPCR method relative to beta-actin; assay type: functional
U-118-MG [27] = experiment: Effect on TNF mRNA expression in human U118MG cells at EC10 by qPCR method relative to beta-actin; assay type: functional
SK-N-SH [28] = experiment: Effect on GNAS mRNA expression in human SK-N-SH cells at EC10 by qPCR method relative to beta-actin; assay type: functional
[29] = Cytotoxicity against human U118MG cells measured after 24 hrs by crystal-violet staining based assay; assay type: toxicity, cell-based; conditions: u-118-mg
SK-N-SH [30] = experiment: Effect on EPHA1 mRNA expression in human SK-N-SH cells at EC10 by qPCR method relative to beta-actin; assay type: functional
U-118-MG [31] = experiment: Effect on MMP9 mRNA expression in human U118MG cells at EC10 by qPCR method relative to beta-actin; assay type: functional
[32] = molecular target: Sphingosine 1-phosphate receptor 1 (Homo sapiens) (UniProt P21453); experiment: Agonist activity at sphingosine-1-phosphate receptor (unknown origin) expressed in HEK293 cells assessed as increase in cAMP level at EC10 after 18 hrs by CRE-responsive renilla luciferase reporter gene assay; assay type: functional, cell-based
U-118-MG [33] = experiment: Effect on GNAS mRNA expression in human U118MG cells at EC10 by qPCR method relative to beta-actin; assay type: functional
SK-N-SH [34] = experiment: Effect on PMP22 mRNA expression in human SK-N-SH cells at EC10 by qPCR method relative to beta-actin; assay type: functional
SK-N-SH [35] = experiment: Effect on TNFRSF1A mRNA expression in human SK-N-SH cells at EC10 by qPCR method relative to beta-actin; assay type: functional
U-118-MG [36] = experiment: Effect on ICAM1 mRNA expression in human U118MG cells at EC10 by qPCR method relative to beta-actin; assay type: functional
[37] = molecular target: Sphingosine 1-phosphate receptor 1 (Homo sapiens) (UniProt P21453); experiment: Agonist activity at sphingosine-1-phosphate receptor in human SH-SY5Y cells assessed as increase in cAMP level at EC10 by direct immunoassay; assay type: functional, cell-based
SH-SY5Y [38] = experiment: Effect on NFKB1 mRNA expression in human SH-SY5Y cells at EC10 by qPCR method relative to beta-actin; assay type: functional
SK-N-SH [39] = experiment: Effect on CXCL10 mRNA expression in human SK-N-SH cells at EC10 by qPCR method relative to beta-actin; assay type: functional
SK-N-SH [40] = experiment: Effect on DRD2 mRNA expression in human SK-N-SH cells at EC10 by qPCR method relative to beta-actin; assay type: functional
U-118-MG [41] = experiment: Effect on PMP22 mRNA expression in human U118MG cells at EC10 by qPCR method relative to beta-actin; assay type: functional
U-118-MG [42] = experiment: Effect on ADCY5 mRNA expression in human U118MG cells at EC10 by qPCR method relative to beta-actin; assay type: functional
SK-N-SH [43] = experiment: Effect on CCL2 mRNA expression in human SK-N-SH cells at EC10 by qPCR method relative to beta-actin; assay type: functional
SK-N-SH [44] = experiment: Effect on ADCY5 mRNA expression in human SK-N-SH cells at EC10 by qPCR method relative to beta-actin; assay type: functional

Sphingosine 1-phosphate receptor 1 (Homo sapiens), sequence (P21453 whole entry): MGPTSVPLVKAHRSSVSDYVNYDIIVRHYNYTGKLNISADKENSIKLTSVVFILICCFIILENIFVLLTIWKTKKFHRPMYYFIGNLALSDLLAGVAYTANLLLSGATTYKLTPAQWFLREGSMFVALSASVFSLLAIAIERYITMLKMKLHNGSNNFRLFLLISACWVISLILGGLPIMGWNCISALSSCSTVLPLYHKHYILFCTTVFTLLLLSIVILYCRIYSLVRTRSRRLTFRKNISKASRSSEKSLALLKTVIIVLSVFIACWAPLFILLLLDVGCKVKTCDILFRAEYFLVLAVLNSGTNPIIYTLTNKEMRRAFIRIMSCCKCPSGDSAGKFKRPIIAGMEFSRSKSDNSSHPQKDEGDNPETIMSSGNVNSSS

CCCCCCCCc1ccc(CCC(N)(CO)CO)cc1 [FINGOLIMOD]
Activity [1]: Active | fold change (FC) (SH-SY5Y [2]): -8.6788 | fold change (FC) (SH-SY5Y [3]): -7.8218 | fold change (FC) (SH-SY5Y [4]): -9.8151 | fold change (FC) (SH-SY5Y [5]): -6.6923 | fold change (FC) (SH-SY5Y [6]): -4.2501 | fold change (FC) (SK-N-SH [7]): -4.6974 | fold change (FC) (SH-SY5Y [8]): -4.4924 | fold change (FC) (SH-SY5Y [9]): -6.498 | fold change (FC) (U-118-MG [10]): -4.9966 | fold change (FC) (SK-N-SH [11]): -8.1222 | Activity [12]: Active | fold change (FC) (SH-SY5Y [13]): -6.0839 | fold change (FC) (SH-SY5Y [14]): -15.9446 | fold change (FC) (U-118-MG [15]): -2.5151 | fold change (FC) (SH-SY5Y [16]): -5.5117 | fold change (FC) (SH-SY5Y [17]): -4.9933 | fold change (FC) (U-118-MG [18]): -4.4847 | fold change (FC) (SH-SY5Y [19]): -3.1821 | fold change (FC) (U-118-MG [20]): -4.7445 | fold change (FC) (SH-SY5Y [21]): -5.1694 | EC10 [22]: 540 nM | fold change (FC) (SH-SY5Y [23]): -3.605 | fold change (FC) (U-118-MG [24]): -3.1465 | EC10 [25]: 550 nM | fold change (FC) (SH-SY5Y [26]): -10.091 | fold change (FC) (U-118-MG [27]): -5.8716 | fold change (FC) (SK-N-SH [28]): -6.1024 | EC10 [29]: 610 nM | fold change (FC) (SK-N-SH [30]): -3.6983 | fold change (FC) (U-118-MG [31]): -6.3039 | Activity [32]: Active | fold change (FC) (U-118-MG [33]): -2.939 | fold change (FC) (SK-N-SH [34]): -3.3914 | fold change (FC) (SK-N-SH [35]): -3.8155 | fold change (FC) (U-118-MG [36]): -6.8152 | Activity [37]: Active | fold change (FC) (SH-SY5Y [38]): -3.9931 | fold change (FC) (SK-N-SH [39]): -5.2302 | fold change (FC) (SK-N-SH [40]): -4.5217 | fold change (FC) (U-118-MG [41]): -5.8716 | fold change (FC) (U-118-MG [42]): -5.5057 | fold change (FC) (SK-N-SH [43]): -11.3481 | fold change (FC) (SK-N-SH [44]): -5.1851
